In US20070073056A1, “4-Substituted Pyrazoline Compounds, their Preparation and Use as Medicaments” (LABORATORIOS DEL DR. ESTEVE, S.A., priority 2005, published 2007):
Read-outs that look alike come from different tables or passages of the source.

How the values were obtained:
[1] = target: CB1-receptor (UniProt P20272); assay: binding of the pyrazoline compounds to CB1-receptors (Pharmacological Methods, Part I); set-up: other: 10^−7 M; other: 10^−8 M; species or system human or rat
Description: (§1) I. In-vitro Determination of Affinity to CB1/CB2-Receptors
(§2) The in-vitro determination of the affinity of the inventive 4-substituted pyrazoline compounds to CB1/CB2-Rezeptors is carried out as described in the publication of Ruth A. Ross, Heather C. Brockie et al., “Agonist-inverse agonist characterisation at CB1 and CB2 cannabinoid receptors of L-759633, L759656 and AM630”, British Journal of Pharmacology, 126, 665-672, (1999), whereby the transfected human CB1 and CB2 receptors of Receptor Biology, Inc. are used. The radioligand used for both receptors is [^3H]-CP55940. The respective parts of the description is hereby incorporated by reference and forms part of the present disclosure.
(§3) Rat Cerebellum CB1 Binding
(§4) Binding affinity to CB1 receptor was evaluated according to a modification of the method described by Govaerts et al., Eur J Pharmac Sci 23, 233-243 (2004). The respective parts of the description is hereby incorporated by reference and forms part of the present disclosure.
(§5) Briefly, cerebellum from male wistar rats (250-300 g) were carefully dissected on ice and homogenates were prepared with Potter-Helveheim in a cold 50 mM Tris-HCl solution containing 5 mM MgCl2, 1 mM EDTA and 0.25 M sucrose, pH 7.4. The suspension was centrifuged at […] for 5 minutes. The supernatants were collected and centrifuged 50,000×g for 15 minutes. The resulting pellets were then resuspended in Tris-HCl buffer without sucrose, homogenized and incubated for 15 min at 37° C. in an orbital shaker bath and centrifuged again at 50,000×g for 15 min. Pellets were weighted, resuspended in Tris-HCl buffer without sucrose, homogenized with Ultraturrax at 13,500 rpm for 3×5 seconds and alicuoted in 0.9 ml volumes in Eppendorf tubes. Alicuotes were centrifuged at 20,800×g for 5 minutes, supernatants discarded and pellets were frozen at −80° C. until use. Total protein concentration was determined using the Bio-Rad Lowry method based kit. Competitive binding experiments were performed in presence of 1 nM [^3H]-CP 55,940 in siliconized glass tubes containing 100 μg protein/tube resuspended in 1 ml final volume of 50 mM Tris-HCl, 5 mM MgCl2, 1 mM EDTA, 0.5% (w/v) bovine serum albumin, pH 7.4. Compounds were present at various concentrations and the non specific binding was determined in the presence of 10 μM HU-210. After 1 hour incubation at 30° C., the suspension was rapidly filtered through 0.5% PEI pre-treated GF/B fiber filters on a 96-well harvester and washed 3 times with 3 ml ice-cold binding buffer without bovine serum albumin. Radioactivity on filters was measured with Wallac Winspectral 1414 counter by liquid scintillation in 6 ml Ecoscint H (National Diagnostics, U.K.). Assays were made in triplicates.
(§6) Binding data were analyzed by non-linear regression with the software GraphPad Prism Version 3.03.
(§7) The binding of the pyrazoline compounds of general formula I to CB1-receptors was determined according to the method described in the section Pharmacological Methods, Part I.

[2] = target: CB1-receptor (UniProt P20272); assay: as above; set-up: IC50; species or system human or rat
Description: as §1, §2, §3, §4, §5, §6, §7

[3] = radioligand [3H]-CP55940, read-out: IC50

Structure (SMILES)	Inhibition ([1]; 10^−7 M) [%]	Inhibition ([1]; 10^−8 M, in %)	IC50 [2, 3] [µM]	IC50 ([2]; radioligand [3H]-CP55940, hydrochloride, read-out: IC50) [µM]
COc1ccc([C@H]2[C@@H](C)C(C(=O)NN3CC4CCCC4C3)=NN2c2ccc(Cl)cc2Cl)cc1.Cl (relative stereo) [Example 277, cis-1-(2,4-dichlorophenyl)-N-(hexahydrocyclopenta[c]pyrrol-2(1H)-yl)-5-(4-methoxyphenyl)-4-methyl-4,5-dihydro-1H-pyrazole-3-carboxamide hydrochloride]	61.6	17.9	0.02	
C[C@H]1C(C(=O)NC2CCCCCC2)=NN(c2ccc(Cl)cc2Cl)[C@H]1c1ccc(F)cc1 (relative stereo) [Example 231, cis-N-cycloheptyl-1-(2,4-dichlorophenyl)-5-(4-fluorophenyl)-4-methyl-4,5-dihydro-1H-pyrazole-3-carboxamide]	50.5	23.2	0.112	
CC1CCCC(C)N1NC(=O)C1=NN(c2ccc(Cl)cc2Cl)[C@H](c2ccc(Cl)cc2)[C@@H]1C (relative stereo) [Example 103, cis-5-(4-chlorophenyl)-1-(2,4-dichlorophenyl)-N-(2,6-dimethylpiperidin-1-yl)-4-methyl-4,5-dihydro-1H-pyrazole-3-carboxamide]	55.3	19.5	0.0606	
COc1ccc([C@@H]2[C@H](C)C(C(=O)NN3CCCCC3)=NN2c2ccc(Cl)cc2Cl)cc1.Cl (relative stereo) [Example 265, cis-1-(2,4-dichlorophenyl)-5-(4-methoxyphenyl)-4-methyl-N-(piperidin-1-yl)-4,5-dihydro-1H-pyrazole-3-carboxamide hydrochloride]	62	29.2		0.06
C[C@@H]1C(C(=O)NN2CCCCC2)=NN(c2ccc(Cl)cc2Cl)[C@@H]1c1ccc(Br)cc1.Cl (relative stereo) [Example 418, cis-5-(4-bromophenyl)-1-(2,4-dichlorophenyl)-4-methyl-N-(piperidin-1-yl)-4,5-dihydro-1H-pyrazole-3-carboxamide hydrochloride]	62.6	19.9	0.036	
CC1CCCC(NC(=O)C2=NN(c3ccc(Cl)cc3Cl)[C@H](c3ccc(Cl)cc3)[C@@H]2C)C1 (relative stereo) [Example 423, cis-5-(4-chlorophenyl)-1-(2,4-dichlorophenyl)-4-methyl-N-(3-methylcyclohexyl)-4,5-dihydro-1H-pyrazole-3-carboxamide]	66.7	33.1	0.0455	

Continued, values first:

Inhibition ([1]; 10^−7 M) [%]	Inhibition ([1]; 10^−8 M, in %)	IC50 [2, 3] [µM]	IC50 ([2]; radioligand [3H]-CP55940, hydrochloride, read-out: IC50) [µM]	Structure (SMILES)
93.5	41	0.182		CCOC(=O)C1=NN(c2ccc(Cl)cc2Cl)[C@@H](c2ccc(Cl)cc2)[C@@H]1C(F)(F)F (relative stereo) [Example 416, trans-ethyl 5-(4-chlorophenyl)-1-(2,4-dichlorophenyl)-4-(trifluoromethyl)-4,5-dihydro-1H-pyrazole-3-carboxylate]
72.3	11.6	0.069		C[C@@H]1C(C(=O)N[C@H]2CCCC[C@@H]2O)=NN(c2ccc(Cl)cc2Cl)[C@@H]1c1ccc(Cl)cc1 (single isomer, unassigned) [Example 129]
		0.079		C[C@@H]1C(C(=O)NN2CCCCC2)=NN(c2ccc(Cl)cc2Cl)[C@H]1c1ccc(Cl)cc1 (relative stereo) [Example 431, trans-5-(4-chlorophenyl)-1-(2,4-dichlorophenyl)-4-methyl-N-(piperidin-1-yl)-4,5-dihydro-1H-pyrazole-3-carboxamide]
		0.089		C[C@@H]1C(C(=O)NN2CCCCC2)=NN(c2ccc(Cl)cc2Cl)[C@@H]1c1ccc(Cl)cc1 (relative stereo) [Example 434, cis-5-(4-chlorophenyl)-1-(2,4-dichlorophenyl)-4-methyl-N-(piperidin-1-yl)-4,5-dihydro-1H-pyrazole-3-carboxamide]
